Molecules are shown by their SMILES. Structures can show the parent of a compound that is named as a salt. Where two headings read alike, the source gives them in different places. Where only a bound is given, the exact number is not on record here.

Series [1] in a line: in vitro. It counts as in vitro ADME. The following applies: human, s9, pH 7.4. Summed up: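 Test compounds at 2 μM final were incubated in a GI S9 reaction mixture, reactions being started by substrate addition. Diluted supernatants were quantified by LC/MS on a Q-Exactive using analyte/internal standard peak area ratios, with 0.1% formic acid water/acetonitrile gradient elution and 5 ppm mass tolerance.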

For series [2] the following is noted: 2 μM.
Series [3] concerns Caco-2 cells (clone C2BBe1). As to conditions: human.
The test system of series [4] is RSV-Luc5. The series can be described thus: microbe, parasite or virus in culture. As to conditions: human respiratory syncytial virus, NHBE, 72 h, read-out: RSV NHBE EC50 (nM). It counts as cell-based.
Series [5] is described as follows: in vitro. It counts as cell-based. As to conditions: human. Summed up: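 Uninfected MT4 cells cultured with compound 4–5 days at 37 °C, equilibrated to 25 °C, and viability read by CellTiter-Glo luminescence. Untreated and 2 μM puromycin-treated cells defined 100% and 0% viability; CC50, the concentration reducing viability by 50%, from non-linear regression.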

The test system of series [6] is SARS-CoV2-NLuc. The experiment in a line: microbe, parasite or virus in culture. It counts as cell-based, SARS Coronavirus 2. As to conditions: Severe acute respiratory syndrome coronavirus 2, 48 h, read-out: SARS-CoV2 EC50 (nM).
The nature of series [7]: in vitro. As to conditions: human, plasma.

In series [1], `CC(C)OC(=O)OC[C@H]1O[C@@](C#N)(c2ccc3c(N)ncnn23)[C@@H]2OC(=O)CCCCC(=O)O[C@@H]21` [Compound C7, ((8aR,9R,11R,11aR)-11-(4-aminopyrrolo[2,1-f][1,2,4]triazin-7-yl)-11-cyano-2,7-dioxodecahydrofuro[3,4-b][1,4]dioxecin-9-yl)methyl isopropyl carbonate] yielded a half-life at 2 μM of 0.596 min. Moreover, the “Human Plasma T1/2” value in series [2] stood at 3 min. Moreover, in series [3] (Caco-2), the “Caco2 A to B” value is reported as 4.31 and the “Caco2 B to A” value is 9.89. Moreover, in series [4], the EC50 was found to be 2730 nM. Further, the CC50 in series [5] was more than 50 µM. The EC50 in series [6] is more than 50000 nM.

Turning to `CCC(CC)COC(=O)OC[C@H]1O[C@@](C#N)(c2ccc3c(N)ncnn23)[C@@H]2OC(=O)CCCC(=O)O[C@@H]21` [Compound C21, ((7aR,8R,10R,10aR)-10-(4-aminopyrrolo[2,1-f][1,2,4]triazin-7-yl)-10-cyano-2,6-dioxooctahydro-2H-furo[3,4-b][1,4]dioxonin-8-yl)methyl (2-ethylbutyl) carbonate], the half-life at 2 μM in series [1] was found to be 0.637 min. Moreover, the “Human Plasma T1/2” value in series [2] turned out to be 3 min. Besides, the figures for the EC50 in series [4] and in series [6] were 6600 nM and 1440 nM, respectively. In series [5], this compound showed a 50% cytotoxic concentration (CC50) of more than 50 µM.

Compound `CC(C)C(=O)OC[C@H]1O[C@@](C#N)(c2ccc3c(N)ncnn23)[C@@H]2OC(=O)CCCC(=O)O[C@@H]21` [Compound C54, ((7aR,8R,10R,10aR)-10-(4-aminopyrrolo[2,1-f][1,2,4]triazin-7-yl)-10-cyano-2,6-dioxooctahydro-2H-furo[3,4-b][1,4]dioxonin-8-yl)methyl isobutyrate] came in with a half-life at 2 μM in series [1] of 0.589 min. The “Human Plasma T1/2” value in series [2] is reported as 3 min. In series [3] (Caco-2), the “Caco2 A to B” value is listed as 1 and the “Caco2 B to A” value was found to be 2.98. Besides, the EC50 in series [4] was 6040 nM. Further, in series [5], the CC50 is more than 50 µM. Further, in series [6], the EC50 amounted to 7880 nM.

In series [1], `CC(C)OC(=O)OC[C@H]1O[C@@](C#N)(c2ccc3c(N)ncnn23)[C@@H]2OC(=O)CCCCCC(=O)O[C@@H]21` [Compound C6, ((9aR,10R,12R,12aR)-12-(4-aminopyrrolo[2,1-f][1,2,4]triazin-7-yl)-12-cyano-2,8-dioxodecahydro-2H-furo[3,4-b][1,4]dioxacycloundecin-10-yl)methyl isopropyl carbonate] came in with a half-life at 2 μM of 0.637 min. In addition, in series [2], the “Human Plasma T1/2” value is 3 min. Moreover, in series [3] (Caco-2), the “Caco2 A to B” value is given as 11.12 and the “Caco2 B to A” value turned out to be 11.68. For the same compound, the EC50 in series [4] amounted to 1460 nM. For the same compound, the half-maximal cytotoxic concentration (CC50) in series [5] is more than 50 µM. For the same compound, the EC50 in series [6] is more than 50000 nM.

Turning to `N#CC1(COC(=O)OC[C@H]2O[C@@](C#N)(c3ccc4c(N)ncnn34)[C@@H]3OC(=O)CCCC(=O)O[C@@H]32)CC1` [Compound C24, ((7aR,8R,10R,10aR)-10-(4-aminopyrrolo[2,1-f][1,2,4]triazin-7-yl)-10-cyano-2,6-dioxooctahydro-2H-furo[3,4-b][1,4]dioxonin-8-yl)methyl ((1-cyanocyclopropyl)methyl) carbonate], the half-life at 2 μM in series [1] is 0.565 min. In series [2], the “Human Plasma T1/2” value stood at 3 min. Also, the EC50 amounted to 7760 nM in series [4] and 11500 nM in series [6]. Moreover, the CC50 in series [5] is more than 50 µM.

For the compound `CN1[C@@H]2CC[C@H]1C[C@@H](OC(=O)OC[C@H]1O[C@@](C#N)(c3ccc4c(N)ncnn34)[C@@H]3OC(=O)CC(C)(C)CC(=O)O[C@@H]31)C2` [Compound C47, ((7aR,8R,10R,10aR)-10-(4-aminopyrrolo[2,1-f][1,2,4]triazin-7-yl)-10-cyano-4,4-dimethyl-2,6-dioxooctahydro-2H-furo[3,4-b][1,4]dioxonin-8-yl)methyl ((1R,3s,5S)-8-methyl-8-azabicyclo[3.2.1]octan-3-yl) carbonate formate], the half-life at 2 μM stood at 99.4 min in series [1] and 60.2 min in series [7]. For the same compound, the “Caco2 A to B” value in series [3] (Caco-2, 2 h) amounted to 0.04. For the same compound, the “Caco2 B to A” value in series [3] (Caco-2, 2 h) amounted to 5.19. The EC50 in series [4] and in series [6] was more than 50000 nM in each case. In series [5], this compound registered a CC50 of more than 50 µM.

For the compound `N#C[C@@]1(c2ccc3c(N)ncnn23)O[C@H](COC(=O)OC2CCOCC2)[C@H]2OC(=O)CCCC(=O)O[C@H]21` [Compound C16, ((7aR,8R,10R,10aR)-10-(4-aminopyrrolo[2,1-f][1,2,4]triazin-7-yl)-10-cyano-2,6-dioxooctahydro-2H-furo[3,4-b][1,4]dioxonin-8-yl)methyl (tetrahydro-2H-pyran-4-yl) carbonate], in series [1], the half-life at 2 μM was 0.605 min. Further, in series [3] (Caco-2), the “Caco2 A to B” value came to 0.68. Besides, in series [3] (Caco-2), the “Caco2 B to A” value was determined as 5.08. Further, the EC50 in series [4] was found to be 20000 nM; in series [6], 14900 nM. Besides, the half-life in series [7] was 14.1 min. The same compound had a CC50 in series [5] of more than 50 µM.

For the compound `CN1[C@@H]2CC[C@H]1C[C@@H](OC(=O)OC[C@H]1O[C@@](C#N)(c3ccc4c(N)ncnn34)[C@@H]3OC(=O)CCCC(=O)O[C@@H]31)C2` [Compound C30, ((7aR,8R,10R,10aR)-10-(4-aminopyrrolo[2,1-f][1,2,4]triazin-7-yl)-10-cyano-2,6-dioxooctahydro-2H-furo[3,4-b][1,4]dioxonin-8-yl)methyl ((1R,3s,5S)-8-methyl-8-azabicyclo[3.2.1]octan-3-yl) carbonate formate], the values for the half-life at 2 μM in series [1] and in series [7] were 0.575 min and 24 min, respectively. Besides, the “Caco2 A to B” value in series [3] (Caco-2, 2 h) worked out at 0.02. The “Caco2 B to A” value in series [3] (Caco-2, 2 h) turned out to be 0.42. The EC50 in series [4] was more than 50000 nM; in series [6], 42500 nM. The same compound yielded a CC50 in series [5] of more than 50 µM.

Take `N#C[C@@]1(c2ccc3c(N)ncnn23)O[C@H](COC(=O)OC2CCCC2)[C@H]2OC(=O)CCCC(=O)O[C@H]21` [Compound C20, ((7aR,8R,10R,10aR)-10-(4-aminopyrrolo[2,1-f][1,2,4]triazin-7-yl)-10-cyano-2,6-dioxooctahydro-2H-furo[3,4-b][1,4]dioxonin-8-yl)methyl cyclopentyl carbonate]: the “Human Plasma T1/2” value in series [2] came out at 3 min. The EC50 in series [4] was determined as 27900 nM; in series [6], 11700 nM. In addition, the CC50 in series [5] was more than 50 µM.

On to `N#C[C@@]1(c2ccc3c(N)ncnn23)O[C@H](COC(=O)OC(CF)CF)[C@H]2OC(=O)CCCC(=O)O[C@H]21` [Compound C27, ((7aR,8R,10R,10aR)-10-(4-aminopyrrolo[2,1-f][1,2,4]triazin-7-yl)-10-cyano-2,6-dioxooctahydro-2H-furo[3,4-b][1,4]dioxonin-8-yl)methyl (1,3-difluoropropan-2-yl) carbonate], for which, in series [1], the half-life at 2 μM worked out at 0.617 min. Moreover, the “Human Plasma T1/2” value in series [2] was determined as 3 min. The values for the EC50 in series [4] and in series [6] were 9810 nM and 7400 nM, respectively. In series [5], this compound registered a CC50 of more than 50 µM.

With `CC(=O)OC[C@H]1O[C@@](C#N)(c2ccc3c(N)ncnn23)[C@@H]2OC(=O)CCCC(=O)O[C@@H]21` [Compound C55, ((7aR,8R,10R,10aR)-10-(4-aminopyrrolo[2,1-f][1,2,4]triazin-7-yl)-10-cyano-2,6-dioxooctahydro-2H-furo[3,4-b][1,4]dioxonin-8-yl)methyl acetate], the “Human Plasma T1/2” value in series [2] is given as 3 min. The half-maximal effective concentration (EC50) amounted to 2070 nM in series [4] and 3300 nM in series [6]. In addition, the CC50 in series [5] was more than 50 µM.

On to `CCC(=O)OC[C@H]1O[C@@](C#N)(c2ccc3c(N)ncnn23)[C@@H]2OC(=O)CCCC(=O)O[C@@H]21` [Compound C56, ((7aR,8R,10R,10aR)-10-(4-aminopyrrolo[2,1-f][1,2,4]triazin-7-yl)-10-cyano-2,6-dioxooctahydro-2H-furo[3,4-b][1,4]dioxonin-8-yl)methyl propionate], for which the “Human Plasma T1/2” value in series [2] was found to be 3 min. The EC50 in series [4] turned out to be 2300 nM; in series [6], 4580 nM. Also, the CC50 in series [5] is more than 50 µM.

Turning to `CC1(C)CC(=O)O[C@H]2[C@@H](OC(=O)C1)[C@](C#N)(c1ccc3c(N)ncnn13)O[C@@H]2COC(=O)OC1CCOC1` (stereo partly drawn) [Compound C40, ((7aR,8R,10R,10aR)-10-(4-aminopyrrolo[2,1-f][1,2,4]triazin-7-yl)-10-cyano-4,4-dimethyl-2,6-dioxooctahydro-2H-furo[3,4-b][1,4]dioxonin-8-yl)methyl (tetrahydrofuran-3-yl) carbonate], the figures for the half-life at 2 μM in series [1] and in series [7] were 5.83 min and 72.5 min, respectively. In addition, the “Caco2 A to B” value in series [3] (Caco-2) is 0.69. Besides, the “Caco2 B to A” value in series [3] (Caco-2) is 5.13. In addition, the EC50 in series [4] and in series [6] was more than 50000 nM each time. Besides, in series [5], the CC50 is more than 50 µM.

`CC(C)OC(=O)OC[C@H]1O[C@@](C#N)(c2ccc3c(N)ncnn23)[C@@H]2OC(=O)OCCC=CCCOC(=O)O[C@@H]21` [Compound C52, ((12aR,13R,15R,15aR)-15-(4-aminopyrrolo[2,1-f][1,2,4]triazin-7-yl)-15-cyano-2,11-dioxo-4,5,8,9,12a,13,15,15a-octahydrofuro[3,4-d][1,3,6,8]tetraoxacyclotetradecin-13-yl)methyl isopropyl carbonate] returned a half-life at 2 μM in series [1] of 0.6 min. In series [3] (Caco-2), the “Caco2 A to B” value is 6.77 and the “Caco2 B to A” value is on record as 11.87. Besides, in series [4], the EC50 is 1600 nM. The half-life in series [7] is 1580 min. Also, the CC50 in series [5] was more than 50 µM. Also, the EC50 in series [6] was determined as 7100 nM.

A word on the half-life: it is how long it takes for the measured level to halve. A word on the EC50: it is the concentration needed to bring the measured effect to its halfway point. Broadly, the CC50 is the concentration at which the toxic effect on the cells reaches its halfway point. Low values mean harm at low concentration, high ones better tolerance by the cells.

The record behind these values is US20240417411A1, “COMPOUNDS AND METHODS FOR TREATMENT OF VIRAL INFECTIONS” (priority 2023, published 2024).
